Results: PubChem BioAssay (NCI)
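Grown in 96-well plates, cells were treated for 48 hours with each compound at five concentrations. Insufficient inhibition: endpoint recorded as highest concentration tested. The concentration for full growth arrest is given as TGI.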

What was measured:
Assay in all cases: growth of human tumour cells (NCI), 48 h
[1] = test system: SF-268 CNS
[2] = test system: ACHN renal
[3] = test system: SR leukemia
[4] = test system: RXF 393 renal
[5] = test system: SK-MEL-2 melanoma
[6] = test system: COLO 205 colon
[7] = test system: RPMI-8226 leukemia
[8] = test system: T-47D breast
[9] = test system: CCRF-CEM leukemia
[10] = test system: HOP-62 NSCLC
[11] = test system: MCF7 breast
[12] = test system: HL-60(TB) leukemia
[13] = test system: BT-549 breast
[14] = test system: SNB-19 CNS
[15] = test system: IGROV1 ovarian
[16] = test system: SNB-75 CNS
[17] = test system: HOP-92 NSCLC
[18] = test system: SF-539 CNS
[19] = test system: HT29 colon
[20] = test system: U251 CNS
[21] = test system: OVCAR-3 ovarian
[22] = test system: MDA-MB-435
[23] = test system: LOX IMVI melanoma
[24] = test system: MDA-MB-231 breast
[25] = test system: OVCAR-8 ovarian
[26] = test system: UACC-257 melanoma
[27] = test system: EKVX NSCLC
[28] = test system: SK-MEL-28 melanoma
[29] = test system: SK-OV-3 ovarian
[30] = test system: OVCAR-4 ovarian
[31] = test system: HCC-2998 colon
[32] = test system: DU-145 prostate
[33] = test system: MOLT-4 leukemia
[34] = test system: K-562 leukemia
[35] = test system: HCT-116 colon
[36] = test system: TK-10 renal
[37] = test system: HCT-15 colon
[38] = test system: KM12 colon
[39] = test system: UACC-62 melanoma
[40] = test system: MALME-3M melanoma
[41] = test system: HS 578T breast
[42] = test system: 786-0 renal
[43] = test system: NCI/ADR-RES ovarian
[44] = test system: A549 NSCLC
[45] = test system: CAKI-1 renal
[46] = test system: A498 renal
[47] = test system: SK-MEL-5 melanoma
[48] = test system: MDA-N
[49] = test system: PC-3 prostate
[50] = test system: OVCAR-5 ovarian
[51] = test system: NCI-H226 lung
[52] = test system: NCI-H23 lung
[53] = test system: NCI-H522 lung
[54] = test system: SN12C renal
[55] = test system: NCI-H460 lung
[56] = test system: SW-620 colon
[57] = test system: SF-295 CNS
[58] = test system: M14 melanoma
[59] = test system: DMS 114 small cell lung
[60] = test system: DMS 273 small cell lung
[61] = test system: UO-31 renal
[62] = test system: LXFL 529 NSCLC
[63] = test system: XF 498 CNS
[64] = test system: DLD-1 colon
[65] = test system: KM20L2 colon
[66] = test system: M19-MEL melanoma
[67] = test system: SNB-78 CNS

With `N#Cc1ccc(C2ON=C(c3ccccc3)N2C23CC4CC(CC(C4)C2)C3)cc1` (configuration not stated) the TGI [1] was > 10 µM, the TGI [2] was > 10 µM and the TGI [3] was > 10 µM. For the same compound, the TGI [4] was > 10 µM, the TGI [5] was > 10 µM and the TGI [6] was > 10 µM. The TGI [7] was > 10 µM, the TGI [8] was > 10 µM and the TGI [9] was > 10 µM. The TGI [10] was > 10 µM, the TGI [11] was > 10 µM and the TGI [12] was > 10 µM. The TGI [13] was > 10 µM, the TGI [14] was > 10 µM and the TGI [15] was > 10 µM. For the same compound, the TGI [16] was > 10 µM, the TGI [17] was > 10 µM and the TGI [18] was > 10 µM. The TGI [19] was > 10 µM, the TGI [20] was > 10 µM and the TGI [21] was > 10 µM. The TGI [22] was > 10 µM, the TGI [23] was > 10 µM and the TGI [24] was > 10 µM. For the same compound, the TGI [25] was > 10 µM, the TGI [26] was > 10 µM and the TGI [27] was > 10 µM. The TGI [28] was > 10 µM, the TGI [29] was > 10 µM and the TGI [30] was > 10 µM. For the same compound, the TGI [31] was > 10 µM, the TGI [32] was > 10 µM and the TGI [33] was > 10 µM. For the same compound, the TGI [34] was > 10 µM, the TGI [35] was > 10 µM and the TGI [36] was > 10 µM. For the same compound, the TGI [37] was > 10 µM, the TGI [38] was > 10 µM and the TGI [39] was > 10 µM. For the same compound, the TGI [40] was > 10 µM, the TGI [41] was > 10 µM and the TGI [42] was > 10 µM. The TGI [43] was > 10 µM, the TGI [44] was > 10 µM and the TGI [45] was > 10 µM. The TGI [46] was > 10 µM, the TGI [47] was > 10 µM and the TGI [48] was > 10 µM. The TGI [49] was > 10 µM, the TGI [50] was > 10 µM and the TGI [51] was > 10 µM. The TGI [52] was > 10 µM, the TGI [53] was > 10 µM and the TGI [54] was > 10 µM. The TGI [55] was > 10 µM, the TGI [56] was > 10 µM and the TGI [57] was > 10 µM. For the same compound, the TGI [58] was > 10 µM.
With `COc1cccc(C2=NC(C(C)C)CO2)c1OC` (configuration not stated) the TGI [1] was > 100 µM, the TGI [2] was > 100 µM and the TGI [4] was > 100 µM. For the same compound, the TGI [5] was > 100 µM, the TGI [6] was > 100 µM and the TGI [7] was > 100 µM. The TGI [9] was > 100 µM, the TGI [10] was > 100 µM and the TGI [12] was > 100 µM. For the same compound, the TGI [59] was > 100 µM, the TGI [60] was > 100 µM and the TGI [14] was > 100 µM. For the same compound, the TGI [61] was > 100 µM, the TGI [15] was > 100 µM and the TGI [16] was > 100 µM. For the same compound, the TGI [17] was > 100 µM, the TGI [18] was > 100 µM and the TGI [19] was > 100 µM. For the same compound, the TGI [21] was > 100 µM, the TGI [23] was > 100 µM and the TGI [25] was > 100 µM. For the same compound, the TGI [26] was > 100 µM, the TGI [27] was > 100 µM and the TGI [28] was > 100 µM. For the same compound, the TGI [29] was > 100 µM, the TGI [30] was > 100 µM and the TGI [62] was > 100 µM. The TGI [31] was > 100 µM, the TGI [33] was > 100 µM and the TGI [34] was > 100 µM. The TGI [63] was > 100 µM, the TGI [36] was > 100 µM and the TGI [37] was > 100 µM. For the same compound, the TGI [64] was > 100 µM, the TGI [38] was > 100 µM and the TGI [39] was > 100 µM. For the same compound, the TGI [65] was > 100 µM, the TGI [40] was > 100 µM and the TGI [42] was > 100 µM. The TGI [44] was > 100 µM, the TGI [45] was > 100 µM and the TGI [46] was > 100 µM. For the same compound, the TGI [66] was > 100 µM, the TGI [47] was > 100 µM and the TGI [50] was > 100 µM. The TGI [51] was > 100 µM, the TGI [52] was > 100 µM and the TGI [53] was > 100 µM. The TGI [67] was > 100 µM, the TGI [54] was > 100 µM and the TGI [55] was > 100 µM. The TGI [56] was > 100 µM, the TGI [57] was > 100 µM and the TGI [58] was > 100 µM.
